According to PubChem BioAssay (NCI):
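Tested at 5 concentrations; 48 h exposure; 96-well plates; endpoints linearly interpolated, else capped at highest concentration. TGI is the concentration that stops growth completely.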

Tests used:
Assay in all cases: NCI anticancer screen, dose series, 48 h
[1] = test system: SNB-75 CNS
[2] = test system: NCI-H226 lung
[3] = test system: HCT-116 colon
[4] = test system: CCRF-CEM leukemia
[5] = test system: SNB-19 CNS
[6] = test system: RXF 393 renal
[7] = test system: M14 melanoma
[8] = test system: NCI/ADR-RES ovarian
[9] = test system: MDA-MB-231 breast
[10] = test system: IGROV1 ovarian
[11] = test system: LOX IMVI melanoma
[12] = test system: SF-268 CNS
[13] = test system: COLO 205 colon
[14] = test system: UACC-62 melanoma
[15] = test system: TK-10 renal
[16] = test system: PC-3 prostate
[17] = test system: RPMI-8226 leukemia
[18] = test system: SK-OV-3 ovarian
[19] = test system: MDA-N
[20] = test system: NCI-H23 lung
[21] = test system: HOP-62 NSCLC
[22] = test system: BT-549 breast
[23] = test system: A498 renal
[24] = test system: OVCAR-8 ovarian
[25] = test system: HOP-92 NSCLC
[26] = test system: SK-MEL-5 melanoma
[27] = test system: 786-0 renal
[28] = test system: U251 CNS
[29] = test system: SF-539 CNS
[30] = test system: SF-295 CNS
[31] = test system: SK-MEL-2 melanoma
[32] = test system: EKVX NSCLC
[33] = test system: ACHN renal
[34] = test system: SK-MEL-28 melanoma
[35] = test system: MOLT-4 leukemia
[36] = test system: NCI-H522 lung
[37] = test system: HL-60(TB) leukemia
[38] = test system: T-47D breast
[39] = test system: A549 NSCLC
[40] = test system: K-562 leukemia
[41] = test system: NCI-H460 lung
[42] = test system: HS 578T breast
[43] = test system: DU-145 prostate
[44] = test system: SW-620 colon
[45] = test system: SN12C renal
[46] = test system: HCT-15 colon
[47] = test system: HT29 colon
[48] = test system: UO-31 renal
[49] = test system: OVCAR-3 ovarian
[50] = test system: SR leukemia
[51] = test system: KM12 colon
[52] = test system: CAKI-1 renal
[53] = test system: MDA-MB-435
[54] = test system: MALME-3M melanoma
[55] = test system: MCF7 breast
[56] = test system: OVCAR-4 ovarian
[57] = test system: OVCAR-5 ovarian
[58] = test system: UACC-257 melanoma

Measured: TGI

COC(=O)C1C(OS(=O)(=O)O)CCC2CN3CCc4c([nH]c5ccccc45)C3CC21 (stereo not drawn)
> 100 µM: all assays above
